US12552783B2, “Modulators of proteolysis and associated methods of use” (Arvinas Operations, Inc., priority 2018, dated 2026)

Target: KRas (Homo sapiens, UniProt P01116, G12C)
Assay: KRas degradation in SW1573 cells by Western blot, normalized to GAPDH (data of Table 14)
Type: cell-based
Settings: SW1573 cells
Method: Cell Lines, Antibodies, and Reagents. NCI-H2030 (CRL-5914) and SW1573 (CRL-2170) cells were purchased from ATCC. Both cell lines are homozygous for the G12C mutation in KRas. NCI-H2030 cells were cultured in RPMI-1640 medium containing 1% penicillin-streptomycin and 10% fetal bovine serum (FBS). SW1573 cells were cultured in DMEM containing 1% penicillin-streptomycin and 10% FBS. The KRas detection antibody (Cat. No. LS-C175665) was purchased from LifeSpan Biosciences and was used at a dilution of 1:2000. GAPDH was detected using an antibody purchased from Cell Signaling Technology (Cat. No. 5174) and was diluted 1:3000. Secondary anti-mouse and anti-rabbit detection antibodies were purchased from Cell Signaling Technology (Cat. Nos. 7076 and 7074, respectively).
Compound Treatment and Western Blotting of the Data of Table 14. Either NCI-H2030 or SW1573 cells were plated in 12-well plates and allowed to adhere overnight at 37° C. in an incubator containing 5% CO2. The following day, the medium was replaced with the appropriate medium lacking FBS to induce starvation. Cells were returned to the incubator for an additional 24 hours following media exchange. […] Cells were treated with VHL-based compounds for 24 hours and all other compounds for 72 hours. Following treatment, cells were lysed in RIPA buffer (Thermo Fisher Cat. No. 89900) containing phosphatase (Thermo Fisher Cat. No. 1861277) and protease (Thermo Fisher Cat. No. 78429) inhibitor cocktails. Lysates were cleared at 13,000 rpm for 15 minutes and supernatants were assayed for total protein concentration using the Pierce BCA assay system (Thermo Fisher Cat. No. 23225). For each sample, 10 μg total protein was resolved on a 12% Bis-Tris gel and then transferred to a nitrocellulose membrane. After blocking in 3% BSA in TBST (Tris-buffered Saline with 0.1% Tween-20) for 1 hour at room temperature, membranes were probed with the primary antibody (LS Bio Cat. No. LS-C175665) overnight at 4° C. After incubation with the secondary antibody, the following day membranes were visualized using the SuperSignal™ West Femto substrate (Thermo Fisher Cat. No. 34095). The KRas signal in each lane was normalized to GAPDH and percent degradation was either estimated as less than 25% by visual inspection (C in Table 13) or quantitated relative to the DMSO control lane using BIO-RAD Image Lab 5.2.1, and all data was plotted using GraphPad PRISM 6.07.
DC50 is the half-maximal degradation concentration—i.e., the concentration at which 50% degradation is observed. DMax is the maximum degradation efficacy is achieved—i.e., the maximal degradation observed) degradation data.

| Compound | Dmax [%] | Percent Degradation at Indicated Concentration (μM) (0.1 μM) | Percent Degradation at Indicated Concentration (μM) (0.3 μM) | Percent Degradation at Indicated Concentration (μM) (1 μM) | Percent Degradation at Indicated Concentration (μM) (0.03 μM) | Percent Degradation at Indicated Concentration (μM) (3 μM) |
| --- | --- | --- | --- | --- | --- | --- |
| C=CC(=O)N1CCN(c2nc(OC[C@@H]3C[C@@H](OCCOCCOCCOc4ccc5c(c4)C(=O)N(C4CCC(=O)NC4=O)C5=O)CN3C)nc3c2CCN(c2cccc4ccccc24)C3)C[C@@H]1CC#N (stereo partly drawn) [compound 504, 2-((2S)-1-acryloyl-4-(2-(((2S,4R)-4-(2-(2-(2-((2-(2,6-dioxopiperidin-3-yl)-1,3-dioxoisoindolin-5-yl)oxy)ethoxy)ethoxy)ethoxy)-1-methylpyrrolidin-2-yl)methoxy)-7-(naphthalen-1-yl)-5,6,7,8-tetrahydropyrido[3,4-d]pyrimidin-4-yl)piperazin-2-yl)acetonitrile] | ≥ 70 | B (35 < B < 70) | A (A > 70) | C (Percent Degradation: C ≤ 35) | – | – |
| C=CC(=O)N1CCN(c2nc(O[C@H](C)CN3CCC(OCCOc4cc(-c5scnc5C)ccc4CNC(=O)[C@@H]4C[C@@H](O)CN4C(=O)[C@H](c4cc(C)no4)C(C)C)CC3)nc3c2CCN(c2cc(O)cc4ccccc24)C3)CC1 [compound 437, (2S,4R)-N-(2-(2-((14(R)-2-((4-(4-acryloylpiperazin-1-yl)-7-(3-hydroxynaphthalen-1-yl)-5,6,7,8-tetrahydropyrido[3,4-d1pyrimidin-2-yl)oxy)propyl)piperidin-4-yl)oxy)ethoxy)-4-(4-methylthiazo1-5-yl)benzyl)-4-hydroxy-1-((S)-3-methyl-2-(3-methylisoxazol-5-yl)butanoyl)pyrrolidine-2-carboxamide] | – | C (Percent Degradation: C ≤ 35) | C (Percent Degradation: C ≤ 35) | C (Percent Degradation: C ≤ 35) | – | – |
| C=CC(=O)N1CCN(c2nc(O[C@H](C)CN3CCC(OCCOc4cc([C@@H](C(=O)N5C[C@H](O)C[C@H]5C(=O)N[C@@H](C)c5ccc(-c6scnc6C)cc5)C(C)C)on4)CC3)nc3c(F)c(-c4cc(O)cc5ccccc45)c(Cl)cc23)CC1 [compound 524, (2S,4R)-1-((2S)-2-(3-(2-((1-((2R)-2-((4-(4-acryloylpiperazin-1-yl)-6-chloro-8-fluoro-7-(3-hydroxynaphthalen-1-yl)quinazolin-2-yl)oxy)propyl)piperidin-4-yl)oxy)ethoxy)isoxazol-5-yl)-3-methylbutanoyl)-4-hydroxy-N-((S)-1-(4-(4-methylthiazol-5-yl)phenyl)ethyl)pyrrolidine-2-carboxamide] | – | C (Percent Degradation: C ≤ 35) | C (Percent Degradation: C ≤ 35) | – | C (Percent Degradation: C ≤ 35) | – |
| Cc1ncsc1-c1ccc([C@H](C)NC(=O)[C@@H]2C[C@@H](O)CN2C(=O)[C@@H](NC(=O)COCCOCCOCCOCCO[C@@H]2C[C@@H](COc3nc4c(c(N5CCN(C(N)=O)[C@@H](CC#N)C5)n3)CCN(c3cccc5ccccc35)C4)N(C)C2)C(C)(C)C)cc1 [compound 537, (S)-2-(cyanomethyl)-4-(2-(((2S,4R)-4-(((S)-16-((2S,4R)-4-hydroxy-2-(((S)-1-(4-(4-methylthiazol-5-yl)phenyl)ethyl)carbamoyl)pyrrolidine-1-carbonyl)-17,17-dimethyl-14-oxo-3,6,9,12-tetraoxa-15-azaoctadecyl)oxy)-1-methylpyrrolidin-2-yl)methoxy)-7-(naphthalen-1-yl)-5,6,7,8-tetrahydropyrido[3,4-d]pyrimidin-4-yl)piperazine-1-carboxamide] | – | – | C (Percent Degradation: C ≤ 35) | C (Percent Degradation: C ≤ 35) | – | C (Percent Degradation: C ≤ 35) |
| C=CC(=O)N1CCN(c2nc(O[C@H](C)CN3CCC(OCCOCCOCCOc4cc(-c5scnc5C)ccc4CNC(=O)[C@@H]4C[C@@H](O)CN4C(=O)[C@@H](c4cc(C)no4)C(C)C)CC3)nc3c2CCN(c2cc(O)cc4ccccc24)C3)CC1 [compound 440, (2S,4R)-N-(2-(2-(2-(2-((1-((R)-2-((4-(4-acryloylpiperazin-1-yl)-7-(3-hydroxynaphthalen-1-yl)-5,6,7,8-tetrahydropyrido[3,4-d]pyrimidin-2-yl)oxy)propyl)piperidin-4-yl)oxy)ethoxy)ethoxy)ethoxy)-4-(4-methylthiazol-5-yl)benzyl)-4-hydroxy-1-((R)-3-methyl-2-(3-methylisoxazol-5-yl)butanoyl)pyrrolidine-2-carboxamide] | – | C (Percent Degradation: C ≤ 35) | C (Percent Degradation: C ≤ 35) | C (Percent Degradation: C ≤ 35) | – | – |
| Cc1ncsc1-c1ccc([C@H](C)NC(=O)[C@@H]2C[C@@H](O)CN2C(=O)[C@@H](NC(=O)COCCOCCOCCOC2CCN(C[C@@H](C)Oc3nc(N4CCN(C(=O)C(O)O)CC4)c4cc(Cl)c(-c5cc(O)cc6ccccc56)c(F)c4n3)CC2)C(C)(C)C)cc1 [compound 246, (2S,4R)-1-((2S)-2-(tert-butyl)-14-((1-((2R)-2-((6-chloro-4-(4-(2,2-dihydroxyacetyl)piperazin-1-yl)-8-fluoro-7-(3-hydroxynaphthalen-1-yl)quinazolin-2-yl)oxy)propyl)piperidin-4-yl)oxy)-4-oxo-6,9,12-trioxa-3-azatetradecanoyl)-4-hydroxy-N-((S)-1-(4-(4-methylthiazol-5-yl)phenyl)ethyl)pyrrolidine-2-carboxamide] | – | – | C (Percent Degradation: C ≤ 35) | C (Percent Degradation: C ≤ 35) | – | C (Percent Degradation: C ≤ 35) |
| C=CC(=O)N1CCN(c2nc(O[C@H](C)CN3CCC(OCCOCCOCCOCCOCC(=O)N[C@H](C(=O)N4C[C@H](O)C[C@H]4C(=O)N[C@@H](C)c4ccc(-c5scnc5C)cc4)C(C)(C)C)CC3)nc3c2CCN(c2cc(O)cc4ccccc24)C3)CC1 [compound 409] | – | C (Percent Degradation: C ≤ 35) | C (Percent Degradation: C ≤ 35) | C (Percent Degradation: C ≤ 35) | – | – |
| C=CC(=O)N1CCN(c2nc(O[C@H](C)CN3CCC(OCCOc4ccc5c(c4)CN(C4CCC(=O)NC4=O)C5=O)CC3)nc3c2CCN(c2cc(O)cc4ccccc24)C3)CC1 (stereo partly shown) [compound 421] | – | C (Percent Degradation: C ≤ 35) | C (Percent Degradation: C ≤ 35) | C (Percent Degradation: C ≤ 35) | – | – |
| C=CC(=O)N1CCN(c2nc(OC[C@@H]3C[C@@H](OCCOCCOCCOCCOCCOc4ccc5c(c4)C(=O)N(C4CCC(=O)NC4=O)C5=O)CN3C)nc3c2CCN(c2cccc4ccccc24)C3)C[C@@H]1CC#N (stereo partly drawn) [compound 505, 2-((2S)-1-acryloyl-4-(2-(((2S,4R)-4-((14-((2-(2,6-dioxopiperidin-3-yl)-1,3-dioxoisoindolin-5-yl)oxy)-3,6,9,12-tetraoxatetradecyl)oxy)-1-methylpyrrolidin-2-yl)methoxy)-7-(naphthalen-1-yl)-5,6,7,8-tetrahydropyrido[3,4-d]pyrimidin-4-yl)piperazin-2-yl)acetonitrile] | – | C (Percent Degradation: C ≤ 35) | C (Percent Degradation: C ≤ 35) | – | C (Percent Degradation: C ≤ 35) | – |
| C=CC(=O)N1CCN(c2nc(O[C@H](C)CN3CCC(OCCOCCOCCOCCOc4ccc5c(c4)C(=O)N(C4CCC(=O)NC4=O)C5=O)CC3)nc3c(F)c(-c4cc(O)cc5ccccc45)c(Cl)cc23)CC1 (stereo partly shown) [compound 429] | – | C (Percent Degradation: C ≤ 35) | C (Percent Degradation: C ≤ 35) | C (Percent Degradation: C ≤ 35) | – | – |
